One assay deals with U87MG cells. Kind of assay: Cellular assay, inhibition of 2-HG production in U87MG cells. It counts as cell-based. The essentials:
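HT1080 or U87MG cells (U87MG kept with 500 ug/mL G418) seeded at 5000 cells/well and treated with compound at 0.2% final DMSO. Incubated 48 h at 37 °C. 2-HG inhibition determined by LC-MS. Viability read by CellTiter-Glo luminescence at 72 h post-dose.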

The test system of another assay is HT1080 cells. Kind of assay: Cellular assay, inhibition of 2-HG production in HT1080 cells. The class given is cell-based. Here is the method:
Cells (HT1080 or U87MG) are grown in T125 flasks in DMEM containing 10% FBS, 1× penicillin/streptomycin and 500 ug/mL G418 (present in U87MG cells only). They are harvested by trypsin and seeded into 96 well white bottom plates at a density of 5000 cell/well in 100 ul/well in DMEM with 10% FBS. […] Cells are incubated overnight at 37° C. in 5% CO2. The next day test compounds are made up at 2× the final concentration and 100 ul are added to each cell well. The final concentration of DMSO is 0.2% and the DMSO control wells are plated in row G. The plates are then placed in the incubator for 48 hours. […] The cell plate is placed back in the incubator for another 24 hours. At 72 hours post compound addition, 10 mL/plate of Promega Cell Titer Glo reagent is thawed and mixed. The cell plate is removed from the incubator and allowed to equilibrate to room temperature. Then 100 ul of Promega Cell Titer Glo reagent is added to each well of media. The cell plate is then placed on an orbital shaker for 10 minutes and then allowed to sit at room temperature for 20 minutes. The plate is then read for luminescence with an integration time of 500 ms.

For another assay, the target named is IDH1 R132C (Homo sapiens (Human), UniProt O75874, R132C). Kind of assay: In vitro NADPH depletion assay for IDH1m R132C inhibitors. The following applies: enzyme, read-out: IDH R132C IC50. The class given is biochemical. As for the experimental part: A test compound is prepared as 10 mM stock in DMSO and diluted to 50× final concentration in DMSO, for a 50 μl reaction mixture. IDH enzyme activity converting alpha-ketoglutarate to 2-hydroxyglutaric acid is measured using a NADPH depletion assay. In the assay the remaining cofactor is measured at the end of the reaction with the addition of a catalytic excess of diaphorase and resazurin, to generate a fluorescent signal in proportion to the amount of NADPH remaining. […] The reaction is started with the addition of 10 μl of Substrate Mix ([…], 5 mM alpha-ketoglutarate, in Assay Buffer) and the mixture is incubated for 90 minutes at room temperature.
The concentration of NADPH and alpha-ketoglutarate in the Substrate Buffer is 20 μM and 1 mM, respectively.

[1] abbreviates: inhibition of 2-HG production, U87MG cells, 48 hours.
Where [2] appears, read: inhibition of 2-HG production, HT1080 cells, 48 hours.

Sequence of IDH1 R132C (O75874 whole entry R132C): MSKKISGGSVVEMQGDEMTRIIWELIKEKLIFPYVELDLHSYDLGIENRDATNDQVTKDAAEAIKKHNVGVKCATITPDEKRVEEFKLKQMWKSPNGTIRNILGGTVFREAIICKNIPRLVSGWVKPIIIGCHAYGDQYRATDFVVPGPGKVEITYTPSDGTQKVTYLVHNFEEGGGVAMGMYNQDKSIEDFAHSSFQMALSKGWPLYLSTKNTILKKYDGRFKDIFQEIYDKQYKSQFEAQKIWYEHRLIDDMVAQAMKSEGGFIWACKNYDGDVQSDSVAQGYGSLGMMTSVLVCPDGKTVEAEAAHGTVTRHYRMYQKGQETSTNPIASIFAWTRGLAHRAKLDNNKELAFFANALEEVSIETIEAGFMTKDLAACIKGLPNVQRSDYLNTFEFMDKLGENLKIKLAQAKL

For `CS(=O)(=O)c1cccc(N(C(=O)[C@@H]2CCC(=O)N2c2nccc(C#N)n2)C(C(=O)NC2CC(F)(F)C2)c2ccccc2Cl)c1` (mixture of isomers) [Compound 102, (2S)—N-(1-(2-Chlorophenyl)-2-((3,3-difluorocyclobutyl)amino)-2-oxoethyl)-1-(4-cyanopyrimidin-2-yl)-N-(3-(methylsulfonyl)phenyl)-5-oxopyrrolidine-2-carboxamide], the IC50 (commonly the concentration that inhibits the measured activity by half) is 100 to 500 nM in the assay on U87MG cells (Homo sapiens, U-87 MG, 48 h) and less than 100 nM in the assay with HT1080 cells (Homo sapiens, HT-1080, 48 h). With `N#Cc1ccnc(N2C(=O)CC[C@H]2C(=O)N(c2cccc(F)c2)[C@H](C(=O)NC2CC(F)(F)C2)c2c(Cl)cccc2Cl)c1` (single isomer, unassigned) [Compound 63], the IC50 in the assay on U87MG cells (Homo sapiens, U-87 MG, 48 h) is less than 100 nM; in the assay with HT1080 cells (Homo sapiens, HT-1080, 48 h), less than 100 nM.

On to `N#Cc1ccnc(N2C(=O)CC[C@H]2C(=O)N(c2cccc(-c3cn[nH]c3)c2)[C@H](C(=O)NC2CC(F)(F)C2)c2ccccc2Cl)c1` (single isomer, unassigned) [Compound 200], for which the half-inhibitory concentration (IC50) was less than 100 nM in the assay on U87MG cells (Homo sapiens, U-87 MG, 48 h) and less than 100 nM with HT1080 cells (Homo sapiens, HT-1080, 48 h).

Turning to `Cc1cccnc1N1C(=O)CC[C@H]1C(=O)N(c1cccc(F)c1)[C@H](C(=O)NC1CC(F)(F)C1)c1ccccc1Cl` [Compound 15], the half-maximal inhibitory concentration (IC50) with U87MG cells (Homo sapiens, U-87 MG, 48 h) lay in the range of 100 to 500 nM; in the assay with HT1080 cells (Homo sapiens, HT-1080, 48 h), 100 to 500 nM. As to `O=C(NC1CC(F)(F)C1)[C@H](c1ccccc1Cl)N(C(=O)[C@@H]1CCC(=O)N1c1nccc2ccccc12)c1cccc(F)c1` [Compound 16], the IC50 is 500 to 1000 nM in the assay with U87MG cells (Homo sapiens, U-87 MG, 48 h) and 100 to 500 nM in the assay on HT1080 cells (Homo sapiens, HT-1080, 48 h). For `COc1cccnc1N1C(=O)CC[C@H]1C(=O)N(c1cccc(F)c1)[C@H](C(=O)NC1CC(F)(F)C1)c1ccccc1Cl` [Compound 17], in that order: 1000 to 2000 nM and 500 to 1000 nM. On to `O=C(NC1CC(F)(F)C1)[C@H](c1ccccc1Cl)N(C(=O)[C@@H]1CCC(=O)N1c1ccncn1)c1cccc(F)c1` [Compound 22], for which the IC50 at IDH1 R132C was in the range of 100 to 500 nM.

As to `O=C(NC1CC(F)(F)C1)[C@H](c1ccccc1Cl)N(C(=O)[C@@H]1CCC(=O)N1c1cc(C(F)(F)F)ccn1)c1cccc(F)c1` [Compound 40], the IC50 lay within 100 to 500 nM in the assay on U87MG cells (Homo sapiens, U-87 MG, 48 h) and 100 to 500 nM in the assay on HT1080 cells (Homo sapiens, HT-1080, 48 h). On to `O=C(NC1CC(F)(F)C1)[C@H](c1ccccc1Cl)N(C(=O)[C@@H]1COCC(=O)N1c1ncccn1)c1cccc(F)c1` [Compound 45], for which the IC50 in the assay with U87MG cells (Homo sapiens, U-87 MG, 48 h) fell in the range of 100 to 500 nM; with HT1080 cells (Homo sapiens, HT-1080, 48 h), 100 to 500 nM.

Regarding `O=C(NC1CC(F)(F)C1)[C@H](c1ccccc1Cl)N(C(=O)[C@@H]1CCC(=O)N1c1ccc(Cl)cn1)c1cccc(F)c1` [Compound 48], the IC50 was in the range of 100 to 500 nM in the assay on U87MG cells (Homo sapiens, U-87 MG, 48 h) and 100 to 500 nM with HT1080 cells (Homo sapiens, HT-1080, 48 h). As for `O=C(NC1CC(F)C1)[C@H](c1ccccc1Cl)N(C(=O)[C@@H]1CCC(=O)N1c1ncccn1)c1cccc(F)c1` (some centres unmarked) [Compound 49], the concentration for half-maximal inhibition (IC50) fell in the range of 100 to 500 nM with U87MG cells (Homo sapiens, U-87 MG, 48 h) and 100 to 500 nM with HT1080 cells (Homo sapiens, HT-1080, 48 h). As for `CC(C)(C)c1cccc(N(C(=O)[C@@H]2CCC(=O)N2c2nccc(C#N)n2)[C@H](C(=O)NC2CC(F)(F)C2)c2ccccc2Cl)c1` [Compound 165, (S)—N-(3-(tert-Butyl)phenyl)-N—((S)-1-(2-chlorophenyl)-2-((3,3-difluorocyclobutyl)amino)-2-oxoethyl)-1-(4-cyanopyrimidin-2-yl)-5-oxopyrrolidine-2-carboxamide], the IC50 with U87MG cells (Homo sapiens, U-87 MG, 48 h) is less than 100 nM; in the assay with HT1080 cells (Homo sapiens, HT-1080, 48 h), less than 100 nM. For `N#Cc1cccc(N(C(=O)[C@@H]2CCC(=O)N2c2nccc(C#N)n2)[C@H](C(=O)NC2CCC(F)(F)CC2)c2ccccc2Cl)c1` [Compound 178, (S)—N—((S)-1-(2-Chlorophenyl)-2-((4,4-difluorocyclohexyl)amino)-2-oxoethyl)-N-(3-cyanophenyl)-1-(4-cyanopyrimidin-2-yl)-5-oxopyrrolidine-2-carboxamide], the IC50 in the assay on U87MG cells (Homo sapiens, U-87 MG, 48 h) was less than 100 nM; in the assay with HT1080 cells (Homo sapiens, HT-1080, 48 h) it was 100 to 500 nM. For `N#Cc1ccnc(N2C(=O)CC[C@H]2C(=O)N(c2cccc(OC3CC3)c2)C(C(=O)NC2CC(F)(F)C2)c2ccccc2Cl)n1` (stereo partly drawn) [Compound 192, (2S)—N-(1-(2-Chlorophenyl)-2-((3,3-difluorocyclobutyl)amino)-2-oxoethyl)-1-(4-cyanopyrimidin-2-yl)-N-(3-cyclopropoxyphenyl)-5-oxopyrrolidine-2-carboxamide], in that order: less than 100 nM and less than 100 nM. The matching figures for `N#Cc1cncc(N(C(=O)[C@@H]2CCC(=O)N2c2cc(C#N)ccn2)[C@H](C(=O)NC2CC(F)(F)C2)c2ccccc2)c1` [Compound 212]: less than 100 nM and less than 100 nM.

With “(2S)—N-(1-(2-Chlorophenyl)-2-((3,3-difluorocyclobutyl)amino)-2-oxoethyl)-1-(4-cyanopyridin-2-yl)-N-(3-fluoro-5-(methylsulfonyl)phenyl)-5-oxopyrrolidine-2-carboxamide [Compound 110]”, the IC50 in the assay with U87MG cells (setting [1]) and with HT1080 cells (setting [2]) was less than 100 nM throughout. “(S)-1-(4-Cyanopyridin-2-yl)-N—((S)-2-(3,3-difluorocyclobutylamino)-1-(2-fluorophenyl)-2-oxoethyl)-N-(3,5-difluorophenyl)-5-oxopyrrolidine-2-carboxamide [Compound 208]”: the IC50 in the assay on U87MG cells (setting [1]) and in the assay with HT1080 cells (setting [2]) was less than 100 nM in each case. On to “(S)-tert-butyl 3-(((S)-1-(2-chlorophenyl)-2-((3,3-difluorocyclobutyl)amino)-2-oxoethyl)(3,5-difluorophenyl)carbamoyl)-5-oxopiperazine-1-carboxylate [Compound 97]”, for which the concentration for half-maximal inhibition (IC50) with U87MG cells (setting [1]) and in the assay on HT1080 cells (setting [2]) was less than 100 nM throughout.

Values taken from patent US10640534B2 (Agios Pharmaceuticals, Inc., priority 2012, dated 2020).
